Data from patent US7119189B2, “Metabotropic GABA [B] receptors, receptor-specific ligands and their uses” (Novartis AG, priority 1997, dated 2006).
Entries after “also recorded” stand apart in the source; their conditions may differ. Where two headings read alike, the source gives them in different places.

Legend:
[1] = test system: non-transfected HEK293 cells; experiment: Forskolin-stimulated cAMP formation in untransfected HEK293 cells (control); type: cell-based
[2] = test system: native GABAB receptors (130K and 100K proteins); details: for competition with / displacement of [125I]CGP71872 at native receptors: FIG. 4b; for [125I]CGP71872 labelling in the presence of excess unlabelled antagonist: 1 μM (10^−6 M) competitor
Description: The incubation is terminated by centrifugation at 20 000×g for 10 min at 4° C. This step removed free unbound photoaffinity label. […] The suspension is centrifuged at 20 000×g for 10 min and resuspended at a concentration of 8 mg/ml protein in buffer. […] The labelled membranes could be stored at −80° C.

GABABR1a = molecular target: T1, GABABR1a (Rattus norvegicus, UniProt Q9Z0U4); experiment: Forskolin-stimulated cAMP accumulation in HEK293 cells stably expressing GABABR1a; type: cell-based
T1 construct: The ability of GABABR1a stably expressed in HEK293 cells to reduce forskolin-stimulated cAMP accumulation is analysed; expressed in transfected cells
T1 sequence (Q9Z0U4 20-960): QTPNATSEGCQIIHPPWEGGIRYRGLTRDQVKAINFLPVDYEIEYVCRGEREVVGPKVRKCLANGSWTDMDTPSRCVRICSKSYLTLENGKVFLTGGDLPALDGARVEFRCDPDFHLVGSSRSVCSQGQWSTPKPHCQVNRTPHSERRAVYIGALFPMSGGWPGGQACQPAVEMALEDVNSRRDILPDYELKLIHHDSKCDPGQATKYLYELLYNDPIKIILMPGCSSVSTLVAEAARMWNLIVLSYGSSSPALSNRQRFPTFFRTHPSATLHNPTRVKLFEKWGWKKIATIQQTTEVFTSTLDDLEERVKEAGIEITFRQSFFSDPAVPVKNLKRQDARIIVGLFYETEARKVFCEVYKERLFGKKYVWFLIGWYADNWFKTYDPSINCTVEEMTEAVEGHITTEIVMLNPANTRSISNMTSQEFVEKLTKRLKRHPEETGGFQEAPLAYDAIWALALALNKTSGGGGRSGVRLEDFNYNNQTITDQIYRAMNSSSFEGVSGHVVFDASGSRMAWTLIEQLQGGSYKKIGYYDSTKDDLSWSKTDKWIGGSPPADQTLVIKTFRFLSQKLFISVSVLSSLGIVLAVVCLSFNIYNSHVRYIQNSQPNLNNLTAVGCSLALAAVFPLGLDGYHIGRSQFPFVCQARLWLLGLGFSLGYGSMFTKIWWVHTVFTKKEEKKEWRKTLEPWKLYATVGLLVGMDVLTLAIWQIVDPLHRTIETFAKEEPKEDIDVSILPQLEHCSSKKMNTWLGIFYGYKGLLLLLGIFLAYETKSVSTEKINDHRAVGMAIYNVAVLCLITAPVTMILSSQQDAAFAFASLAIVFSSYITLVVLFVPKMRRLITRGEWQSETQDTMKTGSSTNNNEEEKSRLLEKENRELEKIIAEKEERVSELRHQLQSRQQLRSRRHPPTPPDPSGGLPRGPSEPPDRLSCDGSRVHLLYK
Description: HEK293 cells stably expressing GABABR1a are treated with 20 μM forskolin (Fsk) to stimulate cAMP formation (100%). […] Bars represent mean values+S.E.M. of at least three independent experiments performed in quadruplicate.
GABAB receptors are described to inhibit adenylate cyclase activity, stimulate phospholipase A2, activate K^+-channels, inactivate voltage-dependent Ca^2+-channels and to modulate inositol phospholipid hydrolysis. As GABABR1a and -b have identical sequence in all domains predicted to be intracellular they are expected to be able to couple to the same effector systems. […] The ability of GABABR1a stably expressed in HEK293 cells to reduce forskolin-stimulated cAMP accumulation is analysed (FIG. 5). We chose concentrations of forskolin and L-baclofen that should produce a maximal effect.

[3] = molecular target: T2, recombinant GABABR1a receptors in membranes from COS 1 cells (Rattus norvegicus, UniProt Q9Z0U4); experiment: biochemical; type: binding
T2 construct: The protein expressed from the 4,376 bp cDNA clone has an apparent molecular mass of about 120 kDa; expressed in transfected cells; host or cells: COS1 cells, transient transfection with the cDNA clone in pcDNAI
T2 sequence (Q9Z0U4 20-960): as above

[4] = molecular target: GABAB receptors in membranes from rat cerebral cortex (Rattus norvegicus, UniProt Q9Z0U4); experiment: biochemical; type: binding
GABAB receptors in membranes from rat cerebral cortex, sequence (Q9Z0U4 164-960 limits assumed): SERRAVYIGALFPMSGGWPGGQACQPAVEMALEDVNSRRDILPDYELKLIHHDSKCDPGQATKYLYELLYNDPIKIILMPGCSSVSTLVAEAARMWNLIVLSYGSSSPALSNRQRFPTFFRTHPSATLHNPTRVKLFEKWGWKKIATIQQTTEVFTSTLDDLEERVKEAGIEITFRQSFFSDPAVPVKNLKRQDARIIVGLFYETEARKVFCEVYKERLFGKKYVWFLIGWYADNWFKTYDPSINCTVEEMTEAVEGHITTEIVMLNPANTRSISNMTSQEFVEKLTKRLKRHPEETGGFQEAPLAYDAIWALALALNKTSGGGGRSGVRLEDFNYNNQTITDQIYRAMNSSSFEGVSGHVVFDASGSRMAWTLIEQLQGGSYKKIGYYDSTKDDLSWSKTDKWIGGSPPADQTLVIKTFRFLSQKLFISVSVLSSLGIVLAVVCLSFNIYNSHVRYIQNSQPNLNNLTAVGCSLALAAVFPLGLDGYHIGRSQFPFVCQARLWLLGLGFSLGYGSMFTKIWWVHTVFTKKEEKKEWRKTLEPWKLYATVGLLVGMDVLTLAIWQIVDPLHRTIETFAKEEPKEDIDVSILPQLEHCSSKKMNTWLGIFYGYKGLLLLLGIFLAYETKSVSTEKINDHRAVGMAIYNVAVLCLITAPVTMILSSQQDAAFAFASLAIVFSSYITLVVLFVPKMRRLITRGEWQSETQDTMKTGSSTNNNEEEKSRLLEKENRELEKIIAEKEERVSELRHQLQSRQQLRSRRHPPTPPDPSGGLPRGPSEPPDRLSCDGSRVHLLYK
GABAB receptors in membranes from rat cerebral cortex, sequence (O88871 41-940, further chain): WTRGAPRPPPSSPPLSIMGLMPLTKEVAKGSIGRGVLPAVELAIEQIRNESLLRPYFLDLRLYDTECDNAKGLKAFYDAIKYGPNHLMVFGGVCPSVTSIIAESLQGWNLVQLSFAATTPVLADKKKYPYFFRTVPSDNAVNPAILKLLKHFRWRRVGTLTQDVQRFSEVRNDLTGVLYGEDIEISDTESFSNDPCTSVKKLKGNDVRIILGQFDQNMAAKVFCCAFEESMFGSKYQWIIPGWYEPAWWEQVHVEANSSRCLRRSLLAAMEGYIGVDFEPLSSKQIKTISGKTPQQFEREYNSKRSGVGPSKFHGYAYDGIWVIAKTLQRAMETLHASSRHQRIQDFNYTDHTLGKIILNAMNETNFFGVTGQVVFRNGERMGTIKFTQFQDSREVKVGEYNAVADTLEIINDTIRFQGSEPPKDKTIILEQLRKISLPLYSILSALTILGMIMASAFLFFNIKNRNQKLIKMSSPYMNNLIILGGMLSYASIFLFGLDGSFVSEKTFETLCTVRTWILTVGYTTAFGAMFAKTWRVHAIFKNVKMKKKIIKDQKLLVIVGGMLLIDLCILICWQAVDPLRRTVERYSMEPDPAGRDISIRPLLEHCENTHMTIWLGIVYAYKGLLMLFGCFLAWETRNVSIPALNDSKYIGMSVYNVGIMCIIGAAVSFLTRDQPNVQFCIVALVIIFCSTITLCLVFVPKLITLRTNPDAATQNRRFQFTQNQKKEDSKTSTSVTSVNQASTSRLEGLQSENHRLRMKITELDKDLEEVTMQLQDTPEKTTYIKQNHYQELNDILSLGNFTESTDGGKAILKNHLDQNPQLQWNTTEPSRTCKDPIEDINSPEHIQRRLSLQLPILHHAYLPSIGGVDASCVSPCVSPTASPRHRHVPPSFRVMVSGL

[5] = test system: GABAA, benzodiazepine, kainate, AMPA, NMDA receptors, strychnine independent binding site at NMDA receptors, muscarinic cholinergic, α1- and α2-adrenergic …; experiment: Receptor selectivity assays at 1 μM; details: concentration of 1 μM
Description: […]. The incubation is terminated by filtration through GF/B Whatman glass fibre filters. […]. The compound is therefore selective for GABAB receptors. […].

## NC[C@H](CC(=O)O)c1ccc(Cl)cc1 [L-baclofen]
[1]
  inhibition of forskolin-stimulated cAMP formation in untransfected cells: does not inhibit; also recorded: No L-baclofen response

## NCCC[PH](=O)O [CGP 27492 (APPA), 3-aminopropyl-phosphinic acid]
[2]
  competition with / displacement of [125I]CGP71872 at native receptors: compete

## C[C@H](NC[C@H](O)CP(=O)(O)CC1CCCCC1)c1ccc(Cl)c(Cl)c1 [CGP 54626A]
[2]
  [125I]CGP71872 labelling in the presence of excess unlabelled antagonist: no radioactivity is bound to the membranes
  competition with / displacement of [125I]CGP71872 at native receptors: effective displacers
[2]; listed as CGP54626A
  [125I]CGP71872 labelling in the presence of excess unlabelled antagonist: inhibited
GABABR1a; 10 μM CGP54626A (FIG. 5), 300 μM L-baclofen
  effect on the L-baclofen inhibition of cAMP accumulation: antagonised
[3]; recombinant GABABR1a expressed in COS1 cells, read-out: Inhibition of [125I]CGP 64213 binding, COS1 cells IC50
  IC50: 0.0016 µM

## CCOC(OCC)P(=O)(O)CCCN [CGP 35348]
[2]
  competition with / displacement of [125I]CGP71872 at native receptors: effective displacers
[4]
  IC50: 9.3 µM
[3]
  IC50: 20 µM

## C[C@@H](NC[C@H](O)CP(=O)(O)CCCCCNC(=O)CCc1ccc(O)c(I)c1)c1cccc(C(=O)O)c1 [CGP 64213]
[5]
  activity in other receptor assays: inactive

## pertussis toxin
GABABR1a; 10 ng/ml for 15–20 h
  effect of preincubation on the L-baclofen response / modulation of adenylate cyclase: sensitive; also recorded: completely abolishes the effect of L-baclofen
